Target: Tryptophan--tRNA ligase (Mycobacterium tuberculosis (strain ATCC 25618 / H37Rv), UniProt P9WFT3)
Test: Biochemical assay for Mt-TrpRS
Assay type: functional
Conditions: not given

Chain of Tryptophan--tRNA ligase (P9WFT3 whole entry): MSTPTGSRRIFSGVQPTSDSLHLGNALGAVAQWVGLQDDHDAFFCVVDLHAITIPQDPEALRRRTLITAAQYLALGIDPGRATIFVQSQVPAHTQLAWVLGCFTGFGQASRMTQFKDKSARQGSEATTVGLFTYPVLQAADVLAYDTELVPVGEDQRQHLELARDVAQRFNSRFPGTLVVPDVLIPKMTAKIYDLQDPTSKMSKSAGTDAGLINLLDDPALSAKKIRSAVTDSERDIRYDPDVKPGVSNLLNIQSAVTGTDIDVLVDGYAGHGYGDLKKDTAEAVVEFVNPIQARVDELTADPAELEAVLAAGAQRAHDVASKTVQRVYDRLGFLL

| Compound | IC50 [µM] |
| --- | --- |
| CO[C@H]1CCN(Cc2ccoc2)C[C@@H]1Cc1ccccc1.O=C(O)C(F)(F)F | > 195 |
| CC(=O)N1CCCC(c2ccc(Cc3ccccc3)cn2)C1 (stereo not given) | > 195 |
| NC(=O)CN1CCC2(CC1)CC(=O)c1ccc3ccccc3c1O2 | > 195 |
| CN(C)C(=O)c1cccc(CN2CCN(CCO)CC2)c1 | > 195 |
| COCCC(=O)N1CCC(C(=O)c2cc(C)cnc2N)CC1 | > 195 |
| CCO[C@H]1CC[C@H]2[C@@H]1OCCN2C(=O)COc1ccccc1 | > 195 |
| CCN1CC[C@@H]2OC[C@H](C(=O)NCc3cccs3)C[C@@H]2C1 | > 195 |
| CO[C@H]1CN(S(=O)(=O)c2ccc(F)cc2)C[C@@]12CCCO2 | > 195 |
| Cn1ccc(-c2cc(C(=O)N3CCC(O)CC3)c3ccccn23)n1 | > 195 |
| COc1ccc2c(c1)C(=O)CC1(CCN(Cc3ccc(F)cc3)CC1)O2 | > 195 |
| Cc1nc(C2(O)CCCNCC2)sc1CCOc1ccc(F)cc1 (stereo not given) | > 195 |
| COCCC(=O)N1CCCC(c2nc(O)cc(-c3ccncc3)n2)C1 (stereo not given) | > 195 |
| O=C1CCC(=O)N1c1nn(Cc2ccccc2)cc1Cl | > 195 |
| Cc1cnccc1-c1cnn(CCNC(=O)c2ccncc2)c1C1CC1 | > 195 |
| OCCN1CCCCC1c1cc[nH]n1 (stereo not given) | > 195 |
| O=C(Cc1cccs1)N1CCC(O)(CN2CCc3ccccc3C2)C1 (stereo not given) | > 195 |
| COCCN1CCC(c2cncc(N(C)C)n2)CC1 | > 195 |
| c1cnc(N2CCCC(c3n[nH]c4ncccc34)C2)nc1 (stereo not given) | > 195 |
| CN(C)C(=O)c1cncnc1-c1ccc(CNC(=O)C2CCCO2)cc1 (stereo not given) | > 195 |
| O=c1[nH]c(-c2ccncc2)ncc1-c1ccnc(NC2CC2)n1 | > 195 |
| Cc1ccc(S(=O)(=O)N2CCC(O)(CN(C)C)C2)cc1 (stereo not given) | > 195 |
| CN(CCC(=O)N1CCCC(Cc2cccnc2)C1)Cc1cccnc1 (stereo not given) | > 195 |
| CNc1nccnc1C1CCN(C(C)C)CC1 | > 195 |
| CS(=O)(=O)c1nccn1Cc1ccc(F)cc1Cl | > 195 |
| COCc1cc(O)nc(C2CCCN(Cc3cccc(Cl)c3Cl)C2)n1 (stereo not given) | > 195 |

| Compound | IC50 [µM] |
| --- | --- |
| O=C(NCCN1CCOCC1)Nc1cnc2cc(Cl)ccc2c1O | > 195 |
| CS(=O)(=O)c1nccn1CCOc1ccccc1F | > 195 |
| CCN(c1ccc(C(=O)N2CCCC2c2cnn(C)c2)cn1)C(C)C (stereo not given) | > 195 |
| Fc1ccc(Cc2cnc(C3CCCN3)cn2)cc1 (stereo not given) | > 195 |
| CNC(=O)c1cnc2c(C)csc2c1 | > 195 |
| CS(=O)(=O)N1CCC2(CC1)CC(NCc1ccco1)c1ccccc12 (stereo not given) | > 195 |
| CN(C)c1cncc(C2CCN(CC(N)=O)CC2)n1 | > 195 |
| NC(=O)C1CCN(C(C(=O)O)c2ccc(Cl)c(C(F)(F)F)c2)CC1 (stereo not given) | > 195 |
| Cc1nn(CC(=O)NCc2cc3n(n2)CCCN(CC(C)C)C3)cc1Cl | > 195 |
| Cn1nccc1C(=O)N1CCCC1c1[nH]ncc1C(N)=O (stereo not given) | > 195 |
| CNC(=O)c1cnn2c(C3CCCN3C)ccnc12 (stereo not given) | > 195 |
| c1ccc(CO[C@H]2C[C@@H]3CN(Cc4cccnc4)C[C@@H]3C2)cc1 | > 195 |
| CN(C)Cc1cncc2c1CCN(Cc1ccoc1)C2 | > 195 |
| COCC(=O)N1CCOC(c2ccc(N(C)C)cn2)C1 (stereo not given) | > 195 |
| O=C(c1cncs1)N1CCC(c2cnccn2)CC1 | > 195 |
| Cc1ccc(F)cc1-c1ccc(N)nc1 | > 195 |
| Cc1nc(N(C)CCN(C)C)c2cnn(C)c2n1 | > 195 |
| CCC(=O)N1CCc2onc(CNS(C)(=O)=O)c2C1 | > 195 |
| O=C(N[C@@H]1CC[C@@H](n2ccnc2)[C@@H]1O)c1cc2c(s1)CCC2 | > 195 |
| Cc1nc(Nc2ncccn2)cc(C2CCCN2C)n1 (stereo not given) | > 195 |
| CN(Cc1ccc(F)cc1)CC1(O)CCN(C(=O)c2ccsc2)C1 (stereo not given) | > 195 |
| Cn1cccc1CNC(=O)CCCc1nnc2ccccn12 | > 195 |
| CN(C)CC1(O)CCN(S(=O)(=O)c2cccc(F)c2)C1 (stereo not given) | > 195 |
| Cc1cc(C[C@@H]2CCC[C@H]2NCc2ccccc2F)on1 | > 195 |
| CCn1cnnc1C1CCN(C(=O)c2cc(C)c(C)s2)CC1 | > 195 |

| Compound | IC50 [µM] |
| --- | --- |
| Cc1cnc(CC2COCCN(Cc3nccn3C)C2)cn1 (stereo not given) | > 195 |
| COCC1CC2(CCN(C(=O)c3ccc(F)c(Cl)c3)CC2)CO1 (stereo not given) | > 195 |
| COCCC(=O)N1CCC2(COCc3cnc(-c4cccnc4)nc32)C1 (stereo not given) | > 195 |
| Cc1ccc(C(=O)NS(=O)(=O)c2ccccc2Cl)c(=O)[nH]1 | > 195 |
| CN(C)c1ncccc1CNC(=O)N1CCCC1CN1CCCC1 (stereo not given) | > 195 |
| c1cn(-c2cnc(C3CCCNC3)cn2)cn1 (stereo not given) | > 195 |
| CNc1cccc(C2CCCN(C(=O)c3ccn(C)n3)C2)n1 (stereo not given) | > 195 |
| CN(C)C(=O)NCC1CC2(CO1)CN(c1nncs1)C2 (stereo not given) | > 195 |
| COc1cccc(F)c1CN1CCC(c2nc(C)cc(C)n2)C1 (stereo not given) | > 195 |
| CS(=O)(=O)NC1CCN(C(=O)NCC2CCCO2)CC1 (stereo not given) | > 195 |
| Cc1cnn(CC2CCCN2Cc2nc(N)c3ccccc3n2)c1 (stereo not given) | > 195 |
| O=C(NC1CC1)[C@@H]1C[C@@H]2CCN(Cc3ccoc3)C[C@@H]2O1 | > 195 |
| O=C(C1CCCCC1)N1CCC(c2n[nH]c3nccnc23)CC1 | > 195 |
| O=C(NCc1ccccn1)c1cnc(C2CCCN2)cn1 (stereo not given) | > 195 |
| Fc1cccc(-c2nc(CN3CCCC3Cn3cccn3)co2)c1 (stereo not given) | > 195 |
| COc1ccc2c(c1)CC(NCCCn1cc(C)cn1)CC2 (stereo not given) | > 195 |
| CC(C)OCCCNC(=O)CS(=O)(=O)Cc1ccc(Cl)cc1 | > 195 |
| CCCC1CN(CC(C)C)C(=O)c2cccnc2O1 (stereo not given) | > 195 |
| N#Cc1ccc(CN2CCCCC2Cn2cccn2)cc1 (stereo not given) | > 195 |
| C[C@]1(O)CN(CCO)CC[C@@H]1Oc1cccc(F)c1 | > 195 |
| CC(C)OCc1nn(C)c2c1CN(Cc1cccs1)CC2 | > 195 |
| COc1ccccc1C1(C(=O)NCCN2CCCCC2)CCOCC1 | > 195 |
| OC1CCN(Cc2c(-c3ccco3)[nH]c3ncccc23)CC1 | > 195 |
| COCCC(=O)NCCn1nc(C2CCNC2)c2cccnc21 (stereo not given) | > 195 |
| CN(C)CCNC(=O)c1nc2c(s1)CCCN2C(=O)C1CC1 | > 195 |

| Compound | IC50 [µM] |
| --- | --- |
| O=C(c1cccnc1)N1CCC(c2nc(O)cc(-c3ccncc3)n2)C1 (stereo not given) | > 195 |
| Cc1cccc(Cn2cc(C)c(N)n2)c1 | > 195 |
| Cc1ccc2c(c1C)OCC2NCc1ccc(C#N)cc1 (stereo not given) | > 195 |
| CN(C)C(CNCc1nc(-c2ccsc2)no1)c1cccs1 (stereo not given) | > 195 |
| CCSc1ncc(Cl)c(C(=O)NC(CCSC)C(=O)O)n1 (stereo not given) | > 195 |
| O=C(c1cc2c(s1)CCC2)N1CCCC(c2cnccn2)C1 (stereo not given) | > 195 |
| COCC(=O)N1CCCC(c2cccc(-n3ccnc3)n2)C1 (stereo not given) | > 195 |
| CC(C)CC(=O)N1CC(=O)N(CCc2ccccc2)CC(O)C1 (stereo not given) | > 195 |
| CC(O)CN1CCC(=O)N(Cc2ccccc2)Cc2ccccc21 (stereo not given) | > 195 |
| CC(=O)N1CCc2nc(-c3ccc(F)cc3)nc(NC(C)C)c2CC1 | > 195 |
| Oc1cc(CC2COCCN(CC3(O)CCOCC3)C2)ncn1 (stereo not given) | > 195 |
| O=S(=O)(c1ccccc1)N1C(CN2CCOCC2)[C@]2(O)CC[C@H]1CC2 (stereo not given in full) | > 195 |
| O=C(C1CCOC1)N1C[C@@H]2CCN(C(=O)c3cscn3)[C@@H]2C1 (stereo not given in full) | > 195 |
| O=S(=O)(c1cccs1)N1CCCC(c2nccs2)C1 (stereo not given) | > 195 |
| CCS(=O)(=O)NCCCNCc1c(C)nn(C)c1N(C)C | > 195 |
| COCC(=O)N1CCCCC1c1nccc(C)n1 (stereo not given) | > 195 |
| COc1cccc(CN2CC(O)CN(C(=O)C(C)(C)C)CC2=O)c1OC (stereo not given) | > 195 |
| CC(=O)c1ccc(OCC(C)O)cc1O (stereo not given) | > 195 |
| Cc1cncc(C2CCN(C(=O)CCc3ccnn3C)CC2)n1 | > 195 |
| O=C(Cc1cccs1)N1Cc2nc(CN3CCCC3)oc2C1 | > 195 |
| Cn1nc(C2CN(C(=O)c3ccncc3)C2)c2nccnc21 | > 195 |
| Cn1cnnc1C1CCN(C(=O)CCOc2ccc(Cl)cc2)CC1 | > 195 |
| CN1CC(=O)c2sc(NCCc3ccccc3)nc2C1 | > 195 |
| O=C(NC1CC1)N1C[C@@H]2CCN(C(=O)c3cscn3)[C@@H]2C1 | > 195 |

Tested on: not listed separately
Test: microbe, parasite or virus in culture
Conditions: Mycobacterium tuberculosis, 72 h, read-out: pIC50 (converted)

| Compound | IC50 [µM] |
| --- | --- |
| CC(=O)N1CCCC(c2ccc(Cc3ccccc3)cn2)C1 (stereo not given) | 15.3 |
| COCCC(=O)N1CCC(C(=O)c2cc(C)cnc2N)CC1 | > 50.1 |
| CCO[C@H]1CC[C@H]2[C@@H]1OCCN2C(=O)COc1ccccc1 | > 50.1 |
| Cn1ccc(-c2cc(C(=O)N3CCC(O)CC3)c3ccccn23)n1 | > 50.1 |

Target: ClpP1P2 (Mycobacterium tuberculosis (strain ATCC 25618 / H37Rv), UniProt P9WPC3+P9WPC5)
Test: in vitro assay to detect presence of AMC directly proportional to the activity of ClpP1P2. GHDDI collaboration.
Assay type: functional
Conditions: not given

Chain of ClpP1P2 (P9WPC5 whole entry): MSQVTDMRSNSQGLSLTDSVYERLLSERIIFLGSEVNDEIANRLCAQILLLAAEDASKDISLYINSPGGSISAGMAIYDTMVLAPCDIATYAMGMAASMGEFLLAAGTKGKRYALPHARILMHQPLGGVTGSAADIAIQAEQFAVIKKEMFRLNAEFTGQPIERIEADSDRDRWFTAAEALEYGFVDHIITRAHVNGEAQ
Chain of ClpP1P2 (P9WPC3 whole entry): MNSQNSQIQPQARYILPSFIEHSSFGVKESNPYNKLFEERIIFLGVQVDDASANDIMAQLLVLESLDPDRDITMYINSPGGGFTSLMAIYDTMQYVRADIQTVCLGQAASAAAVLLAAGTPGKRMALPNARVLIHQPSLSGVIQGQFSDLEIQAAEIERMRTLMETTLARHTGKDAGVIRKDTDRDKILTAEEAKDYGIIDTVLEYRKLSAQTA

| Compound | IC50 [µM] |
| --- | --- |
| NC(=O)CN1CCC2(CC1)CC(=O)c1ccc3ccccc3c1O2 | > 100 |
| CN(C)C(=O)c1cccc(CN2CCN(CCO)CC2)c1 | > 100 |
| CCN1CC[C@@H]2OC[C@H](C(=O)NCc3cccs3)C[C@@H]2C1 | > 100 |
| CO[C@H]1CN(S(=O)(=O)c2ccc(F)cc2)C[C@@]12CCCO2 | > 100 |
| Cn1ccc(-c2cc(C(=O)N3CCC(O)CC3)c3ccccn23)n1 | > 100 |
| COc1ccc2c(c1)C(=O)CC1(CCN(Cc3ccc(F)cc3)CC1)O2 | > 100 |

Tested on: Plasmodium falciparum
Test: Calibr Malaria Delayed Death Assay SOP
Assay type: functional, organism-based
Conditions: not given

| Compound | pIC50 |
| --- | --- |
| CO[C@H]1CCN(Cc2ccoc2)C[C@@H]1Cc1ccccc1.O=C(O)C(F)(F)F | 5.889 |

Same assay, conditions: Plasmodium falciparum

| Compound | IC50 [µM] |
| --- | --- |
| CO[C@H]1CCN(Cc2ccoc2)C[C@@H]1Cc1ccccc1.O=C(O)C(F)(F)F | 1.2 |

Tested on: not listed separately
Test: microbe, parasite or virus in culture
Conditions: Mycobacterium tuberculosis, 96 h, read-out: pIC50 (converted)

| Compound | IC50 [µM] |
| --- | --- |
| CC(=O)N1CCCC(c2ccc(Cc3ccccc3)cn2)C1 (stereo not given) | 23.5 |
| COCCC(=O)N1CCC(C(=O)c2cc(C)cnc2N)CC1 | > 50.1 |
| CCO[C@H]1CC[C@H]2[C@@H]1OCCN2C(=O)COc1ccccc1 | > 50.1 |
| Cn1ccc(-c2cc(C(=O)N3CCC(O)CC3)c3ccccn23)n1 | > 50.1 |
